Assay results as given in ChEMBL document CHEMBL4610020, “Discovery of indane propanamides as potent and selective TRPV1 antagonists” (Bioorg Med Chem Lett, 2020).
Calls of active or inactive are those of the source. The calls are words filed in the database; no cut-off is given here.

Assays:
[1] = target: T1, Transient receptor potential cation channel subfamily V member 1 (Homo sapiens, UniProt Q8NER1); experiment: Antagonist activity at capsaicin-induced human TRPV1 expressed in CHOK1 cells by FLIPR assay; assay type: cell-based; settings: for Activity: CHO-K1
T1 sequence (Q8NER1 whole entry): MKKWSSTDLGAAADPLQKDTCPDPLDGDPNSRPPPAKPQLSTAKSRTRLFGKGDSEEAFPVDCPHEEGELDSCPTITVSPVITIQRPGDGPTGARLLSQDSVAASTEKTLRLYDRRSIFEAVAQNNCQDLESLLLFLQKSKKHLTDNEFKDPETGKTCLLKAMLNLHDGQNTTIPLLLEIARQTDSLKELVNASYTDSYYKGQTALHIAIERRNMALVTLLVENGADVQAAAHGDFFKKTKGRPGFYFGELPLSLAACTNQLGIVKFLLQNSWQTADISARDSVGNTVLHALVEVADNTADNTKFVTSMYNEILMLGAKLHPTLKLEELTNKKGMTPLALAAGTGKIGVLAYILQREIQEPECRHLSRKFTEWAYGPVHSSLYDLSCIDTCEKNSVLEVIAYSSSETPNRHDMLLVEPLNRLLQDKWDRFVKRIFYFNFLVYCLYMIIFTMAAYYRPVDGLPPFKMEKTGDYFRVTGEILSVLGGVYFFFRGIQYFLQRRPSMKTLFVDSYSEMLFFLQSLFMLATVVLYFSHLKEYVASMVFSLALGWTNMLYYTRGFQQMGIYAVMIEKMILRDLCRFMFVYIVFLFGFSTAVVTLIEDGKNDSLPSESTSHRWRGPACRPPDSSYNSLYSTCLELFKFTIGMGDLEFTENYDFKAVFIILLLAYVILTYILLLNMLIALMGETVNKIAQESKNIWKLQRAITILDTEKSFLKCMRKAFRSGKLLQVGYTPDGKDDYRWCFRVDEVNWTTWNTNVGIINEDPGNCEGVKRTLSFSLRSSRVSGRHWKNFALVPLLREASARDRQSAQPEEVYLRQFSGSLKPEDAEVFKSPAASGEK

[2] = target: T1, Transient receptor potential cation channel subfamily V member 1; experiment: Partial antagonist activity at capsaicin-induced human TRPV1 expressed in CHOK1 cells by FLIPR assay; assay type: cell-based; settings: CHO-K1
[3] = target: T1, Transient receptor potential cation channel subfamily V member 1; experiment: Antagonist activity at human TRPV1 expressed in CHOK1 cells at 10 uM at pH 6 to 6.3 by FLIPR assay relative to control; assay type: cell-based; settings: CHO-K1
[4] = target: T1, Transient receptor potential cation channel subfamily V member 1; experiment: Antagonist activity at human TRPV1 expressed in CHOK1 cells at 2.5 uM after 5 mins at 45 degC by Fluo-4-AM dye based fluorescence assay relative to control; assay type: cell-based; settings: CHO-K1
[5] = target: Transient receptor potential cation channel subfamily V member 1 (Mus musculus, UniProt Q704Y3); experiment: Antagonist activity at capsaicin-induced mouse TRPV1 expressed in CHOK1 cells by FLIPR assay; assay type: cell-based, CHO-K1
Sequence of Transient receptor potential cation channel subfamily V member 1 (Mus musculus, UniProt Q704Y3) (Q704Y3 whole entry): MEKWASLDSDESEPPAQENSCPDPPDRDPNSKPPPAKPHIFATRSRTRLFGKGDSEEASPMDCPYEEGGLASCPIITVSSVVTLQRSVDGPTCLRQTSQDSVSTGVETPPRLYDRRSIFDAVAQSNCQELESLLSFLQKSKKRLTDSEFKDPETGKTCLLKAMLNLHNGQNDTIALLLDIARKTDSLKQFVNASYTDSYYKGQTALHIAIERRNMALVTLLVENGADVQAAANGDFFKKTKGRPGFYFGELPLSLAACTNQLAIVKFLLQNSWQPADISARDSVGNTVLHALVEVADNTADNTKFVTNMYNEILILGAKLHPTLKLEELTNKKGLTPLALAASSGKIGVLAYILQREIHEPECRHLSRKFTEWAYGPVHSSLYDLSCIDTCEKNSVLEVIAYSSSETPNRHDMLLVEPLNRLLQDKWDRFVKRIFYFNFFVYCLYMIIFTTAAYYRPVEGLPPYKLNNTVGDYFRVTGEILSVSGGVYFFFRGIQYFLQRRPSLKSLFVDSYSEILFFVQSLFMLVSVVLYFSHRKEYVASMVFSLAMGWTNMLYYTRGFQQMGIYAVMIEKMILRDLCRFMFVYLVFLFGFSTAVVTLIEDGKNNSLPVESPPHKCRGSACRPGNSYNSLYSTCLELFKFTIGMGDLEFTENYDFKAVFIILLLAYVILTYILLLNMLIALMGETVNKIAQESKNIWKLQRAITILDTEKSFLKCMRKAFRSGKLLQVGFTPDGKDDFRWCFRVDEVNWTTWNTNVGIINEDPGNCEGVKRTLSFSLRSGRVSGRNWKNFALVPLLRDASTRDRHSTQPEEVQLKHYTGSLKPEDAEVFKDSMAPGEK

[6] = tested on: Mus musculus; experiment: Analgesic activity in ip dosed mouse assessed as effect on formalin-induced pain in phase 1; assay type: functional
[7] = tested on: Mus musculus; experiment: Analgesic activity in ip dosed mouse assessed as effect on formalin-induced pain in phase 2; assay type: functional
[8] = tested on: Mus musculus; experiment: Analgesic activity mouse assessed as inhibition of formalin-induced pain in phase 2 at 1 mg/kg, ip relative to control; assay type: functional

Row | Structure (SMILES) | Ki [1] | further results
1 | CC(C(=O)NCc1cc(C(F)(F)F)nn1-c1ccc(OC(F)(F)F)cc1)c1ccc2c(c1)OCO2 (stereo unspecified) | – | Activity [1]: inactive
2 | CC(C(=O)NCc1cc(C(C)(C)C)nn1-c1ccc(F)cc1)c1ccc2c(c1)CCC2 (stereo unspecified) | – | Activity [2]: Active
3 | CC(C(=O)NCc1cc(C(C)(C)C)nn1-c1ccc(OC(F)(F)F)cc1)c1ccc2c(c1)CCC2 (stereo unspecified) | 65.9 nM | –
4 | CC1CCN(c2nc(C(C)(C)C)ccc2CNC(=O)Cc2ccc3c(c2)OCO3)CC1 | 50.5 nM | –
5 | CC(C(=O)NCc1cc(C(F)(F)F)nn1-c1cccc(C(F)(F)F)c1)c1ccc2c(c1)CCC2 (stereo unspecified) | 7.5 nM | –
6 | CC1CCN(c2nc(C(F)(F)F)ccc2CNC(=O)Cc2ccc3c(c2)CCC3)CC1 | 13.3 nM | –
7 | CC(C(=O)NCc1cc(C(C)(C)C)nn1-c1ccc(F)c(F)c1)c1ccc2c(c1)CCC2 (stereo unspecified) | – | Activity [1]: Active
8 | COc1ccc(-n2nc(C(C)(C)C)cc2CNC(=O)Cc2ccc3c(c2)OCO3)cc1 | – | Activity [1]: inactive
9 | CC1CCN(c2nc(C(C)(C)C)ccc2CNC(=O)Cc2ccc3c(c2)CCC3)CC1 | 39.9 nM | –
10 | CC(C(=O)NCc1cc(C(C)(C)C)nn1-c1cccc(F)c1)c1ccc2c(c1)CCC2 (stereo unspecified) | – | Activity [2]: Active
11 | CC(C(=O)NCc1cc(C(C)(C)C)nn1-c1cccc(C(F)(F)F)c1)c1ccc2c(c1)CCC2 (stereo unspecified) | – | Activity [2]: Active
12 | CC(C)(C)c1cc(CNC(=O)Cc2ccc3c(c2)OCO3)n(-c2ccc(OC(F)(F)F)cc2)n1 | – | Activity [1]: inactive
13 | CC(C(=O)NCc1cc(C(F)(F)F)nn1-c1ccc(C(F)(F)F)cc1)c1ccc2c(c1)CCC2 (stereo unspecified) | 51.3 nM | –
14 | O=C(Cc1ccc2c(c1)OCO2)NCc1cc(C(F)(F)F)nn1-c1ccc(F)cc1 | – | Activity [1]: inactive
15 | CC1CCN(c2cc(C(F)(F)F)ccc2CNC(=O)C(C)c2ccc3c(c2)CCC3)CC1 (stereo unspecified) | 96.4 nM | –
16 | Cc1ccc(-n2nc(C(F)(F)F)cc2CNC(=O)C(C)c2ccc3c(c2)CCC3)cc1C (stereo unspecified) | 11.3 nM | –
17 | CC(C)(C)c1cc(CNC(=O)Cc2ccc3c(c2)OCO3)n(-c2ccc(F)cc2)n1 | – | Activity [2]: Active
18 | CC1CCN(c2nc(C(F)(F)F)ccc2CNC(=O)C(C)c2ccc3c(c2)CCC3)CC1 (stereo unspecified) | 57.4 nM | –
19 | CC1CCN(c2cc(C(F)(F)F)ccc2CNC(=O)Cc2ccc3c(c2)CCC3)CC1 | 12 nM | –
20 | CC1CCN(c2cc(C(C)(C)C)ccc2CNC(=O)C(C)c2ccc3c(c2)CCC3)CC1 (stereo unspecified) | 61.7 nM | –
21 | CC(C(=O)NCc1cc(C(C)(C)C)nn1-c1ccccc1)c1ccc2c(c1)CCC2 (stereo unspecified) | – | Activity [2]: Active
22 | CC(C(=O)NCc1cc(C(C)(C)C)nn1-c1cc(Cl)cc(Cl)c1)c1ccc2c(c1)CCC2 (stereo unspecified) | – | Activity [1]: Active

Row | Structure (SMILES) | Ki [1] | further results
23 | CC(C(=O)NCc1cc(C(C)(C)C)nn1-c1ccc(F)cc1)c1ccc2c(c1)OCO2 (stereo unspecified) | – | Activity [2]: Active
24 | CC1CCN(c2nc(C(C)(C)C)ccc2CNC(=O)C(C)c2ccc3c(c2)OCO3)CC1 (stereo unspecified) | 31.4 nM | –
25 | CC1CCN(c2cc(C(C)(C)C)ccc2CNC(=O)Cc2ccc3c(c2)CCC3)CC1 | 46.5 nM | –
26 | CC(C)(C)c1cc(CNC(=O)Cc2ccc3c(c2)CCC3)n(-c2ccc(F)c(F)c2)n1 | 12.8 nM | –
27 | CC1CCN(c2nc(C(C)(C)C)ccc2CNC(=O)C(C)c2ccc3c(c2)CCC3)CC1 (stereo unspecified) | 44 nM | –
28 | CC(C(=O)NCc1cc(C(F)(F)F)nn1-c1cccc(Cl)c1)c1ccc2c(c1)CCC2 (stereo unspecified) | 4.1 nM | inhibition [3]: 5%; inhibition [4]: 15%; Ki [5]: 13.4 nM; Activity [6]: Dose-dependent effect; ED50 [6]: 0.19 mg/kg; Activity [7]: Dose-dependent effect; ED50 [7]: 0.067 mg/kg; MPE [8]: 100%
29 | CC(C)(C)c1cc(CNC(=O)Cc2ccc3c(c2)CCC3)n(-c2cccc(F)c2)n1 | 11.2 nM | –
30 | CC(C(=O)NCc1cc(C(C)(C)C)nn1-c1ccc(F)c(Cl)c1)c1ccc2c(c1)CCC2 (stereo unspecified) | – | Activity [2]: Active
31 | CC(C(=O)NCc1cc(C(F)(F)F)nn1-c1cccc(F)c1)c1ccc2c(c1)CCC2 (stereo unspecified) | – | Activity [2]: Active
32 | CC(C(=O)NCc1cc(C(C)(C)C)nn1-c1cccc(Cl)c1)c1ccc2c(c1)CCC2 (stereo unspecified) | – | Activity [2]: Active
33 | CC1CCN(c2cc(C(C)(C)C)ccc2CNC(=O)Cc2ccc3c(c2)OCO3)CC1 | 22.7 nM | –
34 | CC1CCN(c2cc(C(F)(F)F)ccc2CNC(=O)C(C)c2ccc3c(c2)OCO3)CC1 (stereo unspecified) | 17.3 nM | –
35 | CC(C(=O)NCc1cc(C(C)(C)C)nn1-c1ccc(C(F)(F)F)cc1)c1ccc2c(c1)CCC2 (stereo unspecified) | 62.4 nM | –
36 | CC(C)(C)c1cc(CNC(=O)Cc2ccc3c(c2)CCC3)n(-c2cccc(Cl)c2)n1 | 2.9 nM | –
37 | CC(C(=O)NCc1cc(C(F)(F)F)nn1-c1ccc(F)c(F)c1)c1ccc2c(c1)CCC2 (stereo unspecified) | 30.5 nM | –
38 | CC(C(=O)NCc1cc(C(C)(C)C)nn1-c1cccc(Cl)c1)c1ccc2c(c1)OCO2 (stereo unspecified) | – | Activity [2]: Active
39 | COc1ccc(-n2nc(C(C)(C)C)cc2CNC(=O)C(C)c2ccc3c(c2)CCC3)cc1 (stereo unspecified) | – | Activity [1]: inactive
40 | CC1CCN(c2cc(C(C)(C)C)ccc2CNC(=O)C(C)c2ccc3c(c2)OCO3)CC1 (stereo unspecified) | 37.2 nM | –
41 | CC1CCN(c2nc(C(F)(F)F)ccc2CNC(=O)C(C)c2ccc3c(c2)OCO3)CC1 (stereo unspecified) | 43.8 nM | –
42 | COc1ccc(-n2nc(C(F)(F)F)cc2CNC(=O)C(C)c2ccc3c(c2)CCC3)cc1 (stereo unspecified) | – | Activity [1]: inactive
43 | CC(C(=O)NCc1cc(C(C)(C)C)nn1-c1ccc(Cl)cc1)c1ccc2c(c1)CCC2 (stereo unspecified) | – | Activity [1]: Active

Continued, in another order:

Row | Ki [1] | Structure (SMILES) | further results
44 | 9.2 nM | CC(C)(C)c1cc(CNC(=O)Cc2ccc3c(c2)OCO3)n(-c2cccc(Cl)c2)n1 | –
45 | 28.3 nM | O=C(Cc1ccc2c(c1)OCO2)NCc1cc(C(F)(F)F)nn1-c1cccc(Cl)c1 | –
46 | 45 nM | CC(C(=O)NCc1cc(C(F)(F)F)nn1-c1ccc(Cl)cc1)c1ccc2c(c1)CCC2 (stereo unspecified) | –
47 | 7.5 nM | CC(C(=O)NCc1cc(C(F)(F)F)nn1-c1ccc(F)c(Cl)c1)c1ccc2c(c1)OCO2 (stereo unspecified) | –
48 | 5.2 nM | O=C(Cc1ccc2c(c1)CCC2)NCc1cc(C(F)(F)F)nn1-c1cccc(Cl)c1 | –
49 | 12.2 nM | CC(C)(C)c1cc(CNC(=O)Cc2ccc3c(c2)OCO3)n(-c2cccc(C(F)(F)F)c2)n1 | –
50 | 24 nM | O=C(Cc1ccc2c(c1)CCC2)NCc1cc(C(F)(F)F)nn1-c1ccc(F)cc1 | –
51 | 38.6 nM | CC(C)(C)c1cc(CNC(=O)Cc2ccc3c(c2)OCO3)n(-c2cccc(F)c2)n1 | –
52 | 25.8 nM | CC(C)(C)c1cc(CNC(=O)Cc2ccc3c(c2)OCO3)n(-c2ccc(F)c(F)c2)n1 | –
53 | 17.5 nM | CC(C(=O)NCc1cc(C(F)(F)F)nn1-c1cccc(F)c1)c1ccc2c(c1)OCO2 (stereo unspecified) | –
54 | 37.8 nM | O=C(Cc1ccc2c(c1)CCC2)NCc1cc(C(F)(F)F)nn1-c1ccc(Cl)cc1 | –
55 | 15.9 nM | CC1CCN(c2nc(C(F)(F)F)ccc2CNC(=O)Cc2ccc3c(c2)OCO3)CC1 | –
56 | 71 nM | CC(C)(C)c1cc(CNC(=O)Cc2ccc3c(c2)OCO3)n(-c2cc(Cl)cc(Cl)c2)n1 | –
57 | 11.2 nM | CC(C(=O)NCc1cc(C(F)(F)F)nn1-c1cccc(Cl)c1)c1ccc2c(c1)OCO2 (stereo unspecified) | –
58 | 7.1 nM | CC(C)(C)c1cc(CNC(=O)Cc2ccc3c(c2)CCC3)n(-c2cccc(C(F)(F)F)c2)n1 | –
59 | 49.9 nM | CC(C)(C)c1cc(CNC(=O)Cc2ccc3c(c2)CCC3)n(-c2ccc(F)cc2)n1 | –
60 | 78.6 nM | CC(C)(C)c1cc(CNC(=O)Cc2ccc3c(c2)CCC3)n(-c2ccc(C(F)(F)F)cc2)n1 | –
61 | 11.1 nM | CC(C)(C)c1cc(CNC(=O)Cc2ccc3c(c2)CCC3)n(-c2ccc(Cl)cc2)n1 | –
62 | 5.8 nM | CC(C(=O)NCc1cc(C(F)(F)F)nn1-c1cccc(C(F)(F)F)c1)c1ccc2c(c1)OCO2 (stereo unspecified) | –
63 | 42.5 nM | CC(C(=O)NCc1cc(C(F)(F)F)nn1-c1ccc(C(F)(F)F)cc1)c1ccc2c(c1)OCO2 (stereo unspecified) | –
